Values quoted from earlier work as cited in PubChem BioAssay AID1259409 (Chemical Carcinogenesis Research Information System (CCRIS), 2018).
Values joined by “and” are separate entries in the source; they are usually repeats but may differ in a detail not shown here. Equal entries are not always repeated.

System: rodent chemically induced tumor inhibition, incidence and multiplicity
Assay: CCRIS tumor inhibitor studies
Conditions: Promoter: NONE USED

O[C@@H](CS)[C@@H](O)CS
tumour outcome (control, treated, inhibition, significance) (Carcinogen: TRANS-5-AMINO-3-[2-(5-NITRO-2-FURYL)VINYL]-1,2,4-OXADIAZOLE;SQL8506, 28754-68-9, Carcinogen: TRANS-5-AMINO-3-[2-(5-NITRO-2-FURYL)VINYL]-1,2,4-OXADIAZOLE;SQL8506, 28754-68-9, Dose [Inhibitor]: 100 MG/KG 16 HR BEFORE THE 1ST CARCINOGEN DOSE FOLLOWED BY ADDITIONAL INJECTIONS IMMEDIATELY BEFORE EACH DOSE OF CARCINO, Route [Inhibitor]: INTRAPERITONEAL, Species: MOUSE, Strain/Sex: CD-1/FEMALE, Target Tissue: Type of Lesion: HEMATOPOIETIC SYSTEM: MYELOID LEUKEMIA, Dose [Carcinogen]: 1 G/KG 2/D FOR 5 D EVERY 4 WK FOR 3 COURSES OF TREATMENT): 7/137 (5%), 0/30 (0%), 100%, not calculated
tumour outcome (control, treated, inhibition, significance) (Carcinogen: TRANS-5-AMINO-3-[2-(5-NITRO-2-FURYL)VINYL]-1,2,4-OXADIAZOLE;SQL8506, 28754-68-9, Carcinogen: TRANS-5-AMINO-3-[2-(5-NITRO-2-FURYL)VINYL]-1,2,4-OXADIAZOLE;SQL8506, 28754-68-9, Dose [Inhibitor]: 100 MG/KG 16 HR BEFORE THE 1ST CARCINOGEN DOSE FOLLOWED BY ADDITIONAL INJECTIONS IMMEDIATELY BEFORE EACH DOSE OF CARCINO, Route [Inhibitor]: INTRAPERITONEAL, Species: MOUSE, Strain/Sex: CD-1/FEMALE, Target Tissue: Type of Lesion: LYMPHOID TISSUE: NONTHYMIC LYMPHOMA, Dose [Carcinogen]: 1 G/KG 2/D FOR 5 D EVERY 4 WK FOR 3 COURSES OF TREATMENT): 8/137 (6%), 2/30 (7%), -17%, not calculated
tumour outcome (control, treated, inhibition, significance) (Carcinogen: TRANS-5-AMINO-3-[2-(5-NITRO-2-FURYL)VINYL]-1,2,4-OXADIAZOLE;SQL8506, 28754-68-9, Carcinogen: TRANS-5-AMINO-3-[2-(5-NITRO-2-FURYL)VINYL]-1,2,4-OXADIAZOLE;SQL8506, 28754-68-9, Dose [Inhibitor]: 100 MG/KG 16 HR BEFORE THE 1ST CARCINOGEN DOSE FOLLOWED BY ADDITIONAL INJECTIONS IMMEDIATELY BEFORE EACH DOSE OF CARCINO, Route [Inhibitor]: INTRAPERITONEAL, Species: MOUSE, Strain/Sex: CD-1/FEMALE, Target Tissue: Type of Lesion: LYMPHOID TISSUE: THYMIC LYMPHOMA, Dose [Carcinogen]: 1 G/KG 2/D FOR 5 D EVERY 4 WK FOR 3 COURSES OF TREATMENT): 22/137 (16%), 4/30 (13%), 19%, not calculated
tumour outcome (control, treated, inhibition, significance) (Carcinogen: TRANS-5-AMINO-3-[2-(5-NITRO-2-FURYL)VINYL]-1,2,4-OXADIAZOLE;SQL8506, 28754-68-9, Carcinogen: TRANS-5-AMINO-3-[2-(5-NITRO-2-FURYL)VINYL]-1,2,4-OXADIAZOLE;SQL8506, 28754-68-9, Dose [Inhibitor]: 100 MG/KG 16 HR BEFORE THE 1ST CARCINOGEN DOSE FOLLOWED BY ADDITIONAL INJECTIONS IMMEDIATELY BEFORE EACH DOSE OF CARCINO, Route [Inhibitor]: INTRAPERITONEAL, Species: MOUSE, Strain/Sex: CD-1/FEMALE, Target Tissue: Type of Lesion: STOMACH: SQUAMOUS CARCINOMA, Dose [Carcinogen]: 1 G/KG 2/D FOR 5 D EVERY 4 WK FOR 3 COURSES OF TREATMENT): 60/137 (44%), 18/30 (60%), -36%, not calculated

CCNC(=O)\C=C(C)/C=C/C=C(C)/C=C/C1=C(C)CCCC1(C)C
tumour outcome (control, treated, inhibition, significance) (Carcinogen: N-BUTYL-N-(4-HYDROXYBUTYL)NITROSAMINE, 3817-11-6, Dose [Inhibitor]: 1.5 MMOL/KG DIET DAILY FOR 153 D STARTING ONE WK AFTER THE FINAL CARCINOGEN DOSE (STUDY DURATION: 210 D), Route [Inhibitor]: ORAL, Species: MOUSE, Strain/Sex: BDF/MALE, Target Tissue: Type of Lesion: URINARY BLADDER: TRANSITIONAL CELL CARCINOMA, Dose [Carcinogen]: 7.5 MG 1/WK FOR 8 WK): 35/99 (35%), 19/96 (20%), 43%, p<0.05
tumour outcome (control, treated, inhibition, significance) (Carcinogen: N-BUTYL-N-(4-HYDROXYBUTYL)NITROSAMINE, 3817-11-6, Dose [Inhibitor]: 1.5 MMOL/KG IN DIET DAILY FOR 153 D STARTING ONE WK AFTER THE LAST CARCINOGEN DOSE (STUDY DURATION: 210 D), Route [Inhibitor]: ORAL, Species: MOUSE, Strain/Sex: BDF/MALE, Target Tissue: Type of Lesion: URINARY BLADDER: TRANSITIONAL CELL CARCINOMA, Dose [Carcinogen]: 7.5 MG 1/WK FOR 8 WK): 35/99 (35%), 19/96 (20%), 43%, p<0.05

COc1ccc(O)c(C(C)(C)C)c1
tumour outcome (control, treated, inhibition, significance) (Carcinogen: BENZO[A]PYENE, 50-32-8, Dose [Inhibitor]: 0.28 MMOL/G DIET DAILY FOR 6 WK STARTING 14 D PRIOR TO THE FIRST UNTIL 1 D AFTER LAST CARCINOGEN DOSE FOLLOWED BY AN OBS, Route [Inhibitor]: ORAL, Species: MOUSE, Strain/Sex: STRAIN-A/FEMALE, Target Tissue: Type of Lesion: LUNG: ADENOMA, Dose [Carcinogen]: 3 MG IN 0.2 ML COTTONSEED OIL GIVEN 3X AT 2 WK INTERVALS): 100%, 100%, 0%, not significant
tumour outcome (control, treated, inhibition, significance) (Carcinogen: BENZO[A]PYRENE, 50-32-8, Dose [Inhibitor]: 0.03 MMOL/G OF DIET DAILY STARTING 7 D BEFORE AND CONTINUING THROUGH 3 D AFTER CARCINOGEN TREATMENT FOLLOWED BY OBSERVAT, Route [Inhibitor]: ORAL, Species: MOUSE, Strain/Sex: ICR/FEMALE, Target Tissue: Type of Lesion: FORESTOMACH: NEOPLASM, Dose [Carcinogen]: 1 MG IN 0.2 ML CORN OIL 2/WK FOR 4 WK): 90%, 79%, 12%, not significant and 94%, 79%, 16%, not significant

NCc1cc(=O)[nH]o1
tumour outcome (control, treated, inhibition, significance) (Carcinogen: AZOXYMETHANE, 25843-45-2, Dose [Inhibitor]: 0, 0.5 MG/KG IN 2 ML/KG 0.9% SALINE 1/2 D CONCURRENTLY WITH CARCINOGEN AND CONTINUING FOR STUDY DURATION (STUDY DURATION, Route [Inhibitor]: INTRAPERITONEAL, Species: RAT, Strain/Sex: WISTAR/MALE, Target Tissue: Type of Lesion: COLON: ADENOMA, Dose [Carcinogen]: 7.4 MG/KG IN 0.9% SALINE 1/WK FOR 10 WK): 3/17 (18%), 8/19 (42%), -133%, not significant
tumour outcome (control, treated, inhibition, significance) (Carcinogen: N-METHYL-N'-NITRO-N-NITROSOGUANIDINE, 70-25-7, Dose [Inhibitor]: 0, 0.25 MG/KG IN NACL INJECTED 1/2 D FOR DURATION OF STUDY BEGINNING 1 WK POST CARCINOGEN DOSE (STUDY DURATION: 52 WK), Route [Inhibitor]: INTRAPERITONEAL, Species: RAT, Strain/Sex: WISTAR/MALE, Target Tissue: Type of Lesion: STOMACH: ADENOCARCINOMA, Dose [Carcinogen]: 50 UG/ML IN DRINKING WATER FOR 25 WK): 13/19 (68%), 12/20 (60%), 12%, not significant
tumour outcome (control, treated, inhibition, significance) (Carcinogen: N-METHYL-N'-NITRO-N-NITROSOGUANIDINE, 70-25-7, Dose [Inhibitor]: 0, 0.5 MG/KG BW 1/2 D FOR DURATION OF STUDY BEGINNING 1 WK POST LAST CARCINOGEN DOSE (STUDY DURATION: 52 WK), Route [Inhibitor]: INTRAPERITONEAL, Species: RAT, Strain/Sex: SHR/MALE, Target Tissue: Type of Lesion: STOMACH: ADENOCARCINOMA, Dose [Carcinogen]: 25 UG/ML IN DRINKING WATER FOR 25 WK): 10/20 (50%), 3/20 (15%), 70%, p<0.05
tumour outcome (control, treated, inhibition, significance) (Carcinogen: N-METHYL-N'-NITRO-N-NITROSOGUANIDINE, 70-25-7, Dose [Inhibitor]: 0, 0.5 MG/KG BW 1/2 D FOR DURATION OF STUDY BEGINNING 1 WK POST LAST CARCINOGEN DOSE (STUDY DURATION: 52 WK), Route [Inhibitor]: INTRAPERITONEAL, Species: RAT, Strain/Sex: WISTAR/MALE, Target Tissue: Type of Lesion: STOMACH: ADENOCARCINOMA, Dose [Carcinogen]: 25 UG/ML IN DRINKING WATER FOR 25 WK): 1/14 (7%), 0/15 (0%), 100%, not significant
tumour outcome (control, treated, inhibition, significance) (Carcinogen: N-METHYL-N'-NITRO-N-NITROSOGUANIDINE, 70-25-7, Dose [Inhibitor]: 0, 0.5 MG/KG IN NACL INJECTED 1/2 D FOR DURATION OF STUDY BEGINNING 1 WK POST CARCINOGEN DOSE (STUDY DURATION: 52 WK), Route [Inhibitor]: INTRAPERITONEAL, Species: RAT, Strain/Sex: WISTAR/MALE, Target Tissue: Type of Lesion: STOMACH: ADENOCARCINOMA, Dose [Carcinogen]: 50 UG/ML IN DRINKING WATER FOR 25 WK): 13/19 (68%), 12/18 (67%), 2%, not calculated
